System: C. difficile
Experiment: Addition of secondary bile acids to culture media, C. difficile growth
Conditions: bile acid added to culture media

C[C@H](CCC(=O)O)[C@H]1CC[C@H]2[C@@H]3CC[C@@H]4C[C@H](O)CC[C@]4(C)[C@H]3C[C@H](O)[C@]12C [DCA, deoxycholic acid]
C. difficile growth inhibition in culture media: inhibits c. difficile growth
